Source: patent US8383672B2, “Halogenated rhodamine derivatives and applications thereof” (Kiadis Pharma Canada Inc., priority 2001, dated 2013)
“Also recorded” adds a separate entry of the source.

What was measured:
Cytomegalovirus [1] = assay: Antiviral assay against Cytomegalovirus in FS cells, with PDT treatment; format: cell-based, CMV (AD169); conditions: 50 uM, followed by PDT treatment (180 minutes, 30 Joules/cm^2)
Procedure: The antiviral assay was performed as described in Lin, L (2001). Human diploid fibroblast, foreskin cells (FS), were used in this assay. […].
(§1) FS cells were grown to confluency in shell vials. At the time of infection 2.5-3.5×10^5 cells were growing on each coverslip. The CMV (AD169) stock solution containing 1 mL of virus were quickly thawed, seeded and diluted following 100 fold dilutions in MEM (Earle's salt) supplemented with L-glutamine and 2% FBS, total volume 30 ml.
(§2) The titer of the virus have been determined at 10^−2 (10^4 TCID50) plaque forming units (pfu) in 0.2 ml. Therefore 1 mL used in the PDT experiments represents […]. A M. O. I. of 0.4-0.5 of CMV was used throughout this experiment.
(§3) The plates containing no rhodamines derivatives were treated with light in parallel to the non-light treated plates. The concentration used throughout the assay for the rhodamines derivatives was maintained at 50 uM. Following the addition of the derivatives to the viral stock solution, the plates were placed into the Theralux L6.30 device and illuminated for 180 minutes with 210 rpm agitation. The energy output was measured to be 30 Joules/cm^2. The non-PDT plate was placed into a 37° C. incubator for the same amount of time. Following this treatment time, dilutions were made and inoculated with the FS cells under centrifugation (2000 g, 60 minutes). Following the centrifugation, the cells are incubated 60 minutes at 37° C., 5% CO2, then are washed with the culture media and incubated for 18-24 hours at 37° C. at 5% CO2. Inoculation volume of each dilution was 0.2 ml, the dilutions made were 10^−3 to 10^−5 in duplicate.
The cells were fixed, removed from the vials and stained with labelled FITC (fluorescein isothiocyanate) Mab to CMV immediate early antigen.
CMV viral particles were counted. One fluorescent virus particle (kidney-shaped) represents one plaque forming unit.

S. epidermitis = assay: Bacteriostatic activity of rhodamine derivatives against Staphilococcus epidermitis (photodynamic treatment, CFU/mL); format: cell-based; conditions: for decrease of bacterial growth (bacteriostatic effect): without extrusion time
Procedure: Staphilococcus epidermitis
(§4) The protocol used for the bacteriosidic inactivation was performed as described in Brasseur and coll. with few modifications for bacteriosidic potential assessment (Brasseur et al, 2000).
Bacterial was grown overnight in Lubria Broth medium (LB), 100 μl (≈1×10^7 bacteria) of each bacterial suspension was added to 4 ml of LB medium, a small aliquot of the bacterial suspension was taken out for bacterial titer prior to treatment expressed as CFU/mL. […] Each mixture of bacteria rhodamine derivative was incubated at 37° C. for 40 minutes. The bacteria-rhodamine suspensions were then treated and exposed to a 514 nm wavelength light for 180 minutes, for a total output energy of 30 Joules/cm^2. Following the treatment time, the bacteria-rhodamine suspensions were centrifuged at 3000 g, resuspended in 4 ml and serial dilutions were performed for each duplicate. 10 μL of the diluted bacterial suspensions were plated, the plates incubated overnight at 37° C. The bacteriostatic effect is expressed by the number of CFU/mL.
The protocol used for the bacteriosidic inactivation was performed as described in Brasseur and coll. without modification for bacteriosidic potential assessment (Brasseur et al, 2000).
Bacterial was grown overnight in Lubria Broth medium (LB), 100 μl (≈1×10^7 bacteria) of each bacterial suspension added to 4 ml of LB medium. A small aliquot of the bacterial suspension was taken out for bacterial titer prior to treatment. […] Each mixture of bacteria rhodamine derivative was incubated at 37° C. for 40 minutes. The bacterial suspensions were then centrifuged at 3000 g for 10 minutes, resuspended in 4 mL LB media and incubated for 90 minutes at 37° C. to allow extrusion of the derivatives. The bacteria rhodamines suspensions were then treated and exposed to a 514 nm wavelength light for 180 minutes, for a total output energy of 30 Joules/cm^2. Following the treatment time, serial dilutions were performed for each duplicate and 10 μL of the diluted bacterial suspension was plated, the plates incubated overnight at 37° C. The bacteriostatic effect is expressed by the number of colony forming units/mL.

S. typhimurium = assay: Bacteriostatic activity of rhodamine derivatives against S. typhimurium (photodynamic treatment, CFU/mL); format: cell-based, Salmonella typhimurium; conditions: 50 μM; for antibacterial activity against S. typhimurium: 514 nm light 180 minutes, 30 Joules/cm^2; for log decrease of bacterial growth: S. typhimurium, without extrusion time
Procedure: as §4
(§5) Bacterial was grown overnight in Lubria Broth medium (LB), 100 μl (≈×10^7 bacteria) of each bacterial suspension was added to 4 ml of LB medium, a small aliquot of the bacterial suspension was taken out for bacterial titer prior to treatment expressed as CFU/mL. To the bacterial suspension was added the rhodamines derivatives, each derivative being tested in duplicate at a concentration of 50 μM. Each mixture of bacteria rhodamine derivative was incubated at 37° C. for 40 minutes. The bacteria-rhodamine suspensions were then treated and exposed to a 514 nm wavelength light for 180 minutes, for a total output energy of 30 Joules/cm^2. Following the treatment time, the bacteria-rhodamine suspensions were centrifuged at 3000 g, resuspended in 4 ml and serial dilutions were performed for each duplicate. 10 μL of the diluted bacterial suspensions were plated, the plates incubated overnight at 37° C. The bacteriostatic effect is expressed by the number of CFU/mL.

Cytomegalovirus [2] = assay: Antiviral assay against Cytomegalovirus in FS cells, without PDT treatment; format: cell-based, CMV (AD169); conditions: 50 uM
Procedure: The antiviral assay was performed as described in Lin, L (2001). Human diploid fibroblast, foreskin cells (FS), were used in this assay.
as §1, §2
as §3, with “solution,” for “solution, the plates were placed into the Theralux L6.30 device and illuminated for 180 minutes with 210 rpm agitation. The energy output was measured to be 30 Joules/cm^2. The non-PDT plate was placed into a 37° C. incubator for the same amount of time. Following this treatment time,”, “duplicate. […]” for “duplicate.”
CMV viral particles were counted. […]

E. coli = assay: Bacteriostatic activity of rhodamine derivatives against E. coli (photodynamic treatment, CFU/mL); conditions: for antibacterial activity against E. coli: 50 μM, 514 nm light 180 minutes, 30 Joules/cm^2; for log decrease of bacterial growth: E. coli, 50 uM, without extrusion time
P. aeruginosa = assay: Bacteriostatic activity of rhodamine derivatives against P. aeruginosa (photodynamic treatment, CFU/mL); format: cell-based, Pseudomonas aeruginosa; conditions: 50 μM
Procedure: as §4
as §5, with “(≈1×10^7” for “(≈×10^7”

[3] = 50 μM, 514 nm light 180 minutes, 30 Joules/cm^2

| Compound | antiviral activity against Cytomegalovirus (Cytomegalovirus [1]) | antibacterial activity (section Staphilococcus epidermitis) (S. epidermitis; [3]) | antibacterial activity against S. epidermitis (S. epidermitis; 50 μM, extrusion time of 90 minutes prior to radiation treatment) | effect on bacterial growth (S. epidermitis; S. epidermitis, 50 μM, with 90 minutes extrusion time) | decrease of bacterial growth (bacteriostatic effect) (S. epidermitis; S. epidermitis, 50 μM) | antibacterial activity against S. typhimurium (S. typhimurium) | log decrease of bacterial growth (S. typhimurium) [logs] | antiviral activity against Cytomegalovirus (infectivity) (Cytomegalovirus [2]) | antibacterial activity against E. coli (E. coli) | log decrease of bacterial growth (E. coli) | antibacterial activity against S. epidermitis (S. epidermitis; 10 μM, 514 nm light 180 minutes, 30 Joules/cm^2) | decrease of bacterial growth (bacteriostatic effect) (S. epidermitis; S. epidermitis, 10 μM) | antibacterial activity against P. aeruginosa (P. aeruginosa; 514 nm light 180 minutes, 30 Joules/cm^2) | log decrease of bacterial growth (P. aeruginosa; P. aeruginosa, without extrusion time) [logs] | antiviral activity against Cytomegalovirus (infectivity) (Cytomegalovirus [2]; hydrochloride) |
| --- | --- | --- | --- | --- | --- | --- | --- | --- | --- | --- | --- | --- | --- | --- | --- |
| CCN(CC)c1ccc2c(-c3ccccc3C(=O)OCCCBr)c3ccc(=[N+](CC)CC)cc-3oc2c1 [HA-VIII-92, rhodamine B 3-bromopropyl ester] | possess antiviral activity |  |  |  |  |  |  |  |  |  |  |  |  |  |  |
| COC(=O)c1cc(Cl)c(Cl)cc1-c1c2ccc(=[N+](C)C)cc-2oc2cc(N(C)C)ccc12.[Cl-] [HA-X-40, 2′-(6-dimethylamino-3-dimethylimino-3H-xanthen-9-yl) 4′,5′-dichloro-benzoic acid methyl ester hydrochloride] | possess antiviral activity | showed antibacterial activity | showed antibacterial activity | eradicates bacterial growth | 2 logs |  |  |  |  |  |  |  |  |  |  |
| COCCOCCOC(=O)c1ccccc1-c1c2ccc(=N)c(Br)c-2oc2c(Br)c(N)ccc12 [HA-X-44, 4,5-dibromorhodamine 110 2-(2-methoxyethoxy)ethyl esther] |  | showed antibacterial activity |  |  | eradicates bacterial growth | showed antibacterial activity | 5 | inhibit cytometalovirus infectivity; also recorded: did not need PDT treatment to possess antiviral activity | showed antibacterial activity | eradication |  |  |  |  |  |
| CCN=c1c(C)cc2c(-c3ccccc3C(=O)OCC)c3cc(C)c(NCC)c(Br)c3oc-2c1Br [HA-X-171, 4,5-dibromorhodamine 6G] | possess antiviral activity |  |  |  |  |  |  |  | showed antibacterial activity | 3.7 logs | showed antibacterial activity | 6,5 logs |  |  |  |
| COC(=O)c1ccccc1-c1c2ccc(=N)c(Br)c-2oc2c(Br)c(N)ccc12.Cl [TH9402, 4,5-dibromorhodamine 123 (2-(4,5-dibromo-6-amino-3-imino-3H-xanthen-9-yl)-benzoic acid methyl ester hydrochloride), reference compound] |  | showed antibacterial activity |  |  | inhibits bacterial growth | showed antibacterial activity | 6.7 |  | showed antibacterial activity | 7 logs |  |  | showed antibacterial activity | 2 | inhibit cytometalovirus infectivity; also recorded: did not need PDT treatment to possess antiviral activity |
| acetate salt of 2,7-dibromorhodamine B hexyl ester [HA-X-149] | possess antiviral activity | showed antibacterial activity |  |  | 4,5 logs |  |  |  |  |  |  |  |  |  |  |
| acetate salt of 2,7-dibromorhodamine B methyl ester [HA-X-164] | possess antiviral activity | showed antibacterial activity |  |  | 3 logs | showed antibacterial activity | 0.3 |  | showed antibacterial activity | 0.25 logs |  |  |  |  |  |
